Assay results as given in the NIST ThermoML archive (doi:10.1016/j.jct.2013.02.001).
“And” between values parts separate entries of the source, which are not always exact repeats. Equal values may be shown once.

Experiment: molar heat capacity at constant pressure
Details: 101.33 kPa, Quantum Design PPMS relaxation calorimeter

O=P([O-])([O-])OP(=O)([O-])[O-].[Fe+2].[Fe+2] [iron(II) pyrophosphate]
molar heat capacity at constant pressure
Details | Crystal 1 | Crystal 2
1 K | – | 0.08666 J/K/mol
1.913 K | – | 0.1778 J/K/mol
2 K | – | 0.1915 J/K/mol
2.064 K | – | 0.1986 J/K/mol
2.26 K | – | 0.2225 J/K/mol
2.531 K | – | 0.2638 J/K/mol
2.801 K | – | 0.3059 J/K/mol
3 K | – | 0.3363 J/K/mol
3.099 K | – | 0.357 J/K/mol
3.44 K | – | 0.423 J/K/mol
3.822 K | – | 0.5078 J/K/mol
4 K | – | 0.5546 J/K/mol
4.26 K | – | 0.6259 J/K/mol
4.75 K | – | 0.7875 J/K/mol
5 K | – | 0.8911 J/K/mol
5.271 K | – | 1.009 J/K/mol
5.851 K | – | 1.309 J/K/mol
6 K | – | 1.402 J/K/mol
6.516 K | – | 1.743 J/K/mol
7 K | – | 2.14 J/K/mol
7.28 K | – | 2.343 J/K/mol
8 K | – | 3.105 J/K/mol
8.038 K | – | 3.122 J/K/mol
8.944 K | – | 4.246 J/K/mol
9 K | – | 4.353 J/K/mol
9.847 K | – | 5.612 J/K/mol
10 K | – | 5.87 J/K/mol
10.08 K | – | 5.991 J/K/mol
10.35 K | – | 6.444 J/K/mol
10.86 K | – | 7.341 J/K/mol
11 K | – | 7.59 J/K/mol
11.2 K | – | 7.958 J/K/mol
11.38 K | – | 8.272 J/K/mol
11.88 K | – | 9.198 J/K/mol
12 K | – | 9.403 J/K/mol
12.4 K | – | 10.13 J/K/mol
12.41 K | – | 10.27 J/K/mol
12.91 K | – | 11.04 J/K/mol
13 K | – | 11.22 J/K/mol
13.42 K | – | 11.97 J/K/mol
13.81 K | – | 12.78 J/K/mol
13.93 K | – | 12.96 J/K/mol
14 K | – | 13.1 J/K/mol
14.15 K | – | 13.36 J/K/mol
14.44 K | – | 13.97 J/K/mol
14.67 K | – | 14.41 J/K/mol
14.95 K | – | 15.04 J/K/mol
15 K | – | 15.16 J/K/mol
15.19 K | – | 15.57 J/K/mol
15.31 K | – | 15.94 J/K/mol
15.46 K | – | 16.16 J/K/mol
15.7 K | – | 16.68 J/K/mol
15.96 K | – | 17.32 J/K/mol
16 K | – | 17.48 J/K/mol
16.21 K | – | 17.94 J/K/mol
16.46 K | – | 18.55 J/K/mol
16.73 K | – | 19.27 J/K/mol
16.97 K | – | 19.88 J/K/mol
17 K | – | 20.05 J/K/mol
17.03 K | – | 20.07 J/K/mol
17.21 K | – | 20.48 J/K/mol
17.47 K | – | 21.15 J/K/mol
17.72 K | – | 21.75 J/K/mol
17.97 K | – | 22.35 J/K/mol
18 K | – | 22.46 J/K/mol
18.22 K | – | 22.9 J/K/mol
18.45 K | – | 23.46 J/K/mol
18.7 K | – | 23.76 J/K/mol
18.86 K | – | 23.9 J/K/mol
18.96 K | 23.94 J/K/mol and 23.94 J/K/mol | 23.94 J/K/mol
19 K | 23.61 J/K/mol | –
19.22 K | 23.87 J/K/mol | –
19.47 K | 23.67 J/K/mol | –
19.72 K | 23.25 J/K/mol | –
19.96 K | 22.81 J/K/mol | –
20 K | 22.76 J/K/mol | –
20.21 K | 22.3 J/K/mol | –
20.45 K | 21.81 J/K/mol | –
20.7 K | 21.41 J/K/mol | –
20.95 K | 21.05 J/K/mol | –
21.21 K | 20.68 J/K/mol | –
21.46 K | 20.31 J/K/mol | –
21.71 K | 20.15 J/K/mol | –
21.96 K | 20.02 J/K/mol | –
22.21 K | 19.89 J/K/mol | –
22.47 K | 19.76 J/K/mol | –
22.74 K | 19.73 J/K/mol | –
22.99 K | 19.67 J/K/mol | –
23.23 K | 19.65 J/K/mol | –
23.29 K | 19.66 J/K/mol | –
23.48 K | 19.65 J/K/mol | –
23.52 K | 19.74 J/K/mol | –
23.7 K | 19.62 J/K/mol | –
23.73 K | 19.62 J/K/mol | –
23.9 K | 19.67 J/K/mol | –
23.98 K | 19.66 J/K/mol | –
24.1 K | 19.7 J/K/mol | –
24.3 K | 19.72 J/K/mol | –
24.47 K | 19.77 J/K/mol | –
24.66 K | 19.78 J/K/mol | –
24.86 K | 19.85 J/K/mol | –
25 K | 19.89 J/K/mol and 19.88 J/K/mol | –
25.05 K | 19.91 J/K/mol | –
25.25 K | 19.94 J/K/mol | –
25.46 K | 19.99 J/K/mol | –
25.48 K | 20.02 J/K/mol | –
25.65 K | 20.06 J/K/mol | –
25.84 K | 20.15 J/K/mol | –
25.86 K | 20.19 J/K/mol | –
25.98 K | 20.18 J/K/mol | –
26.04 K | 20.21 J/K/mol | –
26.23 K | 20.27 J/K/mol | –
26.42 K | 20.35 J/K/mol | –
26.51 K | 20.4 J/K/mol | –
26.62 K | 20.45 J/K/mol | –
26.81 K | 20.52 J/K/mol | –
26.98 K | 20.63 J/K/mol | –
27 K | 20.61 J/K/mol | –
27.2 K | 20.71 J/K/mol | –
27.39 K | 20.81 J/K/mol | –
27.53 K | 20.88 J/K/mol | –
27.58 K | 20.9 J/K/mol | –
27.78 K | 20.99 J/K/mol | –
27.98 K | 20.92 J/K/mol | –
27.99 K | 20.94 J/K/mol | –
28.18 K | 20.76 J/K/mol | –
28.34 K | 20.71 J/K/mol | –
28.53 K | 20.72 J/K/mol | –
28.55 K | 20.74 J/K/mol | –
28.68 K | 20.78 J/K/mol | –
28.75 K | 20.76 J/K/mol | –
28.95 K | 20.82 J/K/mol | –
29.05 K | 20.85 J/K/mol | –
29.12 K | 20.86 J/K/mol | –
29.33 K | 20.93 J/K/mol | –
29.51 K | 21.05 J/K/mol | –
29.53 K | 20.99 J/K/mol | –
29.72 K | 21.07 J/K/mol | –
29.91 K | 21.11 J/K/mol | –
30 K | 21.15 J/K/mol | –
30.06 K | 21.18 J/K/mol | –
30.11 K | 21.2 J/K/mol | –
30.3 K | 21.27 J/K/mol | –
30.5 K | 21.35 J/K/mol | –
30.52 K | 21.34 J/K/mol | –
30.7 K | 21.43 J/K/mol | –
30.89 K | 21.5 J/K/mol | –
31.05 K | 21.58 J/K/mol | –
31.54 K | 21.77 J/K/mol | –
31.86 K | 21.93 J/K/mol | –
32.06 K | 22.02 J/K/mol | –
32.55 K | 22.21 J/K/mol | –
33.06 K | 22.48 J/K/mol | –
33.6 K | 22.75 J/K/mol | –
34.07 K | 22.98 J/K/mol | –
35 K | 23.58 J/K/mol | –
35.39 K | 23.86 J/K/mol | –
39.3 K | 26.23 J/K/mol | –
40 K | 26.79 J/K/mol | –
43.62 K | 29.29 J/K/mol | –
45 K | 30.48 J/K/mol | –
48.44 K | 33.24 J/K/mol | –
50 K | 34.53 J/K/mol | –
53.8 K | 37.9 J/K/mol | –
55 K | 38.88 J/K/mol | –
59.7 K | 43.41 J/K/mol | –
60 K | 43.45 J/K/mol | –
65 K | 48.17 J/K/mol | –
66.33 K | 49.51 J/K/mol | –
70 K | 52.96 J/K/mol | –
73.67 K | 56.22 J/K/mol | –
75 K | 57.77 J/K/mol | –
80 K | 62.51 J/K/mol | –
81.81 K | 63.97 J/K/mol | –
85 K | 67.27 J/K/mol | –
90 K | 72.12 J/K/mol | –
90.85 K | 72.47 J/K/mol | –
95 K | 76.73 J/K/mol | –
100 K | 81.13 J/K/mol | –
100.84 K | 81.1 J/K/mol | –
110 K | 89.39 J/K/mol | –
110.99 K | 89.55 J/K/mol | –
120 K | 97.12 J/K/mol | –
120.88 K | 97.62 J/K/mol | –
130 K | 104.5 J/K/mol | –
131.05 K | 105.42 J/K/mol | –
140 K | 111.61 J/K/mol | –
141.03 K | 112.91 J/K/mol | –
150 K | 118.53 J/K/mol | –
151.17 K | 119.77 J/K/mol | –
160 K | 125.27 J/K/mol | –
161.25 K | 126.73 J/K/mol | –
170 K | 131.84 J/K/mol | –
171.3 K | 133.11 J/K/mol | –
180 K | 138.23 J/K/mol | –
181.45 K | 139.41 J/K/mol | –
190 K | 144.41 J/K/mol | –
191.55 K | 145.2 J/K/mol | –
200 K | 150.38 J/K/mol | –
201.65 K | 151.21 J/K/mol | –
210 K | 156.13 J/K/mol | –
211.78 K | 157.08 J/K/mol | –
220 K | 161.63 J/K/mol | –
221.88 K | 161.91 J/K/mol | –
230 K | 166.89 J/K/mol | –
232.02 K | 167.23 J/K/mol | –
240 K | 171.91 J/K/mol | –
242.09 K | 171.91 J/K/mol | –
250 K | 176.68 J/K/mol | –
252.14 K | 177.54 J/K/mol | –
260 K | 181.21 J/K/mol | –
262.21 K | 182.5 J/K/mol | –
270 K | 185.5 J/K/mol | –
272.36 K | 187.75 J/K/mol | –
273.15 K | 186.8 J/K/mol | –
280 K | 189.56 J/K/mol | –
282.44 K | 193.26 J/K/mol | –
290 K | 193.4 J/K/mol | –
292.45 K | 194.84 J/K/mol | –
298.15 K | 196.38 J/K/mol | –
300 K | 197.04 J/K/mol | –
302.52 K | 200.88 J/K/mol | –
